Results taken from US10508120B2, “TYK2 inhibitors and uses thereof” (Nimbus Lakshmi, Inc., priority 2017, dated 2019).

Columns and labels:
JAK2 kinase domain (JH1) = JAK2 kinase domain (JH1) (Homo sapiens (Human), UniProt O60674); experiment: JAK2 Radioactive Kinase Assay; assay type: biochemical; details: 10 μM compound; 10 μM ATP; read-out: JAK2 JH1% Inhibition @ 10 μM
Summary of the method: (§1)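 Single-point screen: 10 μM test compound, radioactive kinase read-out, percent inhibition reported for each kinase domain.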

[1] = biological target: JAK2/JAK2 homdimeric complex (Homo sapiens (Human), UniProt O60674); experiment: GM-CSF Induced pSTAT5 in Human PBMC; assay type: cell-based; details: GM-CSF 5 ng/mL for 20 minutes, pSTAT5 by MSD, read-out: PBMC_GMCSF_pSTAT5 IC50
Sequence of JAK2/JAK2 homdimeric complex (O60674 whole entry, the tested form may be a part): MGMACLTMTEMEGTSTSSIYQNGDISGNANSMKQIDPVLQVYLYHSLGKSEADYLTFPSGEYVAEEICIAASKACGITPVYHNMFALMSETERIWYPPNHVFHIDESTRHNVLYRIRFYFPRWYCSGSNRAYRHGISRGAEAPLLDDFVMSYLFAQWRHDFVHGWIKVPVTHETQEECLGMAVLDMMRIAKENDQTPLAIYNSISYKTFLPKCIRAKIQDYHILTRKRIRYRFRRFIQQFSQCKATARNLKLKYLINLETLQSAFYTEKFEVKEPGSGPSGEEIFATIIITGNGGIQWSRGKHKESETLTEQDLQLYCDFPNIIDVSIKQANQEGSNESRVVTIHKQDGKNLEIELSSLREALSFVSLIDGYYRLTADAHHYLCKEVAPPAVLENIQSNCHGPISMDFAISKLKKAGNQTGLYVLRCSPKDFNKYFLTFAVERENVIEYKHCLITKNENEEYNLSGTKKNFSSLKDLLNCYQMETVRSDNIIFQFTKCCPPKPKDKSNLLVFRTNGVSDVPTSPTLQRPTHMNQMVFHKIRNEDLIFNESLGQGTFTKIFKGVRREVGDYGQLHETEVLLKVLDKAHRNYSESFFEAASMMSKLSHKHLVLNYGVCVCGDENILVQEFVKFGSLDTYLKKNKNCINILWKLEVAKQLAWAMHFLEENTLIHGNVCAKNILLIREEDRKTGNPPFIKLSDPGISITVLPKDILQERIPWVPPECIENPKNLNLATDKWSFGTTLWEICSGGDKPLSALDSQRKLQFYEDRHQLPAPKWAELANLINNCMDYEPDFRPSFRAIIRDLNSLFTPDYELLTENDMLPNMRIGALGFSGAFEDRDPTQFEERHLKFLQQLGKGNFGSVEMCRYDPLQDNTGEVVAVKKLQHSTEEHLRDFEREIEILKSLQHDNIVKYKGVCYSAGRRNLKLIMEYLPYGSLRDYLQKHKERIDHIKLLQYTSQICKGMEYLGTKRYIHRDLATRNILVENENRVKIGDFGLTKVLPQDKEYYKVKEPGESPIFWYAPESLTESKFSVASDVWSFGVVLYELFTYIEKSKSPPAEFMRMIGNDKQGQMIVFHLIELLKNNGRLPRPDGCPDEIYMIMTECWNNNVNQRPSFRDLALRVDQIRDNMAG
Sequence of JAK2/JAK2 homdimeric complex (P32927 17-897 partner): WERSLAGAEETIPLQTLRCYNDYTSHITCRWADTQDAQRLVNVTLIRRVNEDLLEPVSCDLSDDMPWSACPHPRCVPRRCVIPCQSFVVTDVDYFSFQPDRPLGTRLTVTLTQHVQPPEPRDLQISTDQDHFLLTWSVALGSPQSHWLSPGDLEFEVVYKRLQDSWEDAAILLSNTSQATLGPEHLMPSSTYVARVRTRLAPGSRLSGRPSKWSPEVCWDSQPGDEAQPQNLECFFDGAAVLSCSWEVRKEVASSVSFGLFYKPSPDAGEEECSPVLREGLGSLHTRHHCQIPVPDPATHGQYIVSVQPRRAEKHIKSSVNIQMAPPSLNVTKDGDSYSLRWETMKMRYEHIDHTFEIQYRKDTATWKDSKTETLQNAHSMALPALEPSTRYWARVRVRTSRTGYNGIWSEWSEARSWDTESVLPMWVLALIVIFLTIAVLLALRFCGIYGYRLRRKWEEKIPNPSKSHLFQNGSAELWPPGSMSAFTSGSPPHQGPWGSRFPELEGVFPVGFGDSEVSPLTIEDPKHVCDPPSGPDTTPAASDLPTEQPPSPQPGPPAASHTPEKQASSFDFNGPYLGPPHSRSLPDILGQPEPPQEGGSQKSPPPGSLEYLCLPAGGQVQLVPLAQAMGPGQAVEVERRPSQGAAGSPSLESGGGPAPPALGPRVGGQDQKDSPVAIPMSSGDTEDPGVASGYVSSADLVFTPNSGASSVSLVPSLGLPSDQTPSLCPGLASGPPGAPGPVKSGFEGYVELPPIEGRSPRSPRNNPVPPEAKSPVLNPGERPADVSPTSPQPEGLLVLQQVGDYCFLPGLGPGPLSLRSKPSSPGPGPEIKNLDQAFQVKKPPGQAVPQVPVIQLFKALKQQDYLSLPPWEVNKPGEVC

[2] = biological target: human TYK2 (JH2domain-pseudokinase) (Homo sapiens (Human), UniProt P29597); experiment: TYK2 JH2 Domain Binding Assay (KINOMEscan)
Sequence of human TYK2 (JH2domain-pseudokinase) (P29597 556-888): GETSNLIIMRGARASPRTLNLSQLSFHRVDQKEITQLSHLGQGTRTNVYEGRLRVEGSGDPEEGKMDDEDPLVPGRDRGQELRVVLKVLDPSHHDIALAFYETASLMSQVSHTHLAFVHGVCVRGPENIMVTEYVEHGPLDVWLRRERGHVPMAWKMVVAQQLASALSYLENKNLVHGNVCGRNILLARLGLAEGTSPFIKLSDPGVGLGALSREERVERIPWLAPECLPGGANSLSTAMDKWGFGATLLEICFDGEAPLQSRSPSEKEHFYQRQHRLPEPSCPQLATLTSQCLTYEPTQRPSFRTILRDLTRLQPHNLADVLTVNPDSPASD
Summary of the method: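 Pseudokinase domain binding was measured by qPCR of tagged, bead-retained kinase after 1 h room-temperature competition, with 0.9% DMSO and compound up to 30,000 nM in 3-fold steps. Hill-equation Kd, duplicate.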

Tyk2 kinase domain (DH1) = Tyk2 kinase domain (DH1) (Homo sapiens (Human), UniProt P29597); experiment: Tyk2 Radioactive Kinase Assay; assay type: biochemical; details: 10 μM compound; 10 μM ATP; read-out: Tyk2 JH1% Inhibition @ 10 μM
Sequence of Tyk2 kinase domain (DH1) (P29597 897-1176): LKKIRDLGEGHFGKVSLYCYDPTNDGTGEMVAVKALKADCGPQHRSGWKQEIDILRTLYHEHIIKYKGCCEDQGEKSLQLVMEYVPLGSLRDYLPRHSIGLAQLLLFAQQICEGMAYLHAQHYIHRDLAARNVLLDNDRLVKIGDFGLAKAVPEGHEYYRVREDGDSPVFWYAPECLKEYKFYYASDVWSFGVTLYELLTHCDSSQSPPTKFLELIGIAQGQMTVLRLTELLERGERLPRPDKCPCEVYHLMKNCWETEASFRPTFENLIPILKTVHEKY
Summary of the method: as §1

[3] = biological target: Tyk2/JAK2 (heterodimeric complex) (Homo sapiens (Human), UniProt P29597); experiment: IL-12 Induced pSTAT4 in Human PBMC; assay type: cell-based; details: 1.7 ng/mL IL-12
Sequence of Tyk2/JAK2 (heterodimeric complex) (P29597 whole entry, other chains not shown): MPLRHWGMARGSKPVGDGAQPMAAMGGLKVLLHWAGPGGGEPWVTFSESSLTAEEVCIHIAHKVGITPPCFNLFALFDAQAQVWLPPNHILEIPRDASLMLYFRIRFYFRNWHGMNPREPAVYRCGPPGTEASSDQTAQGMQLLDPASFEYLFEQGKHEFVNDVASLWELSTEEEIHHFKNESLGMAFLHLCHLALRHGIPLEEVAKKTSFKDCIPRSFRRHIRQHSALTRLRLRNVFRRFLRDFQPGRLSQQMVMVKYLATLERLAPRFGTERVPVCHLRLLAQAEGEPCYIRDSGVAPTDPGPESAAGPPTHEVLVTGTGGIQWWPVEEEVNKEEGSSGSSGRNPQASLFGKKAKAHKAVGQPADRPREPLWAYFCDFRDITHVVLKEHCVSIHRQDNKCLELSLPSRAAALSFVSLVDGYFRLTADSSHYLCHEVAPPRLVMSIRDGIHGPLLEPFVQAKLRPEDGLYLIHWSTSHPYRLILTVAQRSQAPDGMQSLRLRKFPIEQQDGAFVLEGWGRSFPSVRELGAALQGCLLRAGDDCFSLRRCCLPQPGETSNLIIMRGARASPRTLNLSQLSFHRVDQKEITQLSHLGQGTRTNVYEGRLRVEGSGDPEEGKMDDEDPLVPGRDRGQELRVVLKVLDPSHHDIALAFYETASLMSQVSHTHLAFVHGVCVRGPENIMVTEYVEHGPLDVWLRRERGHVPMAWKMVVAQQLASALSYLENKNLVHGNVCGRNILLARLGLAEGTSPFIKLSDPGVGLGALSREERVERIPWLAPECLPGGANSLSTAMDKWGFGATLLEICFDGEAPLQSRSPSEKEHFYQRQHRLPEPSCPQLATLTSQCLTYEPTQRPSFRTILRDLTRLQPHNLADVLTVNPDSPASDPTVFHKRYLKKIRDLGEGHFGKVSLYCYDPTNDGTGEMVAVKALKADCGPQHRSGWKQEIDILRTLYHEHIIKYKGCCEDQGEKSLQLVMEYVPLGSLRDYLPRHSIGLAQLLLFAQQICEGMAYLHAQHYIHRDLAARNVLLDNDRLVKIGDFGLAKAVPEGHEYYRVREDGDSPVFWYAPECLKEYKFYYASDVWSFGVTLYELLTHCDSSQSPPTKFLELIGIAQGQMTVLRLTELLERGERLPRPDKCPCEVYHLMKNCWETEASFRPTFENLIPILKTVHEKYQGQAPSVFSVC
Text: The IL-12 Induced pSTAT4 assay evaluates the inhibition of IL-12 induced STAT4 phophorylation mediated by Tyk2/JAK2 (heterodimeric complex).

Sequence of JAK2 kinase domain (JH1) (O60674 849-1124): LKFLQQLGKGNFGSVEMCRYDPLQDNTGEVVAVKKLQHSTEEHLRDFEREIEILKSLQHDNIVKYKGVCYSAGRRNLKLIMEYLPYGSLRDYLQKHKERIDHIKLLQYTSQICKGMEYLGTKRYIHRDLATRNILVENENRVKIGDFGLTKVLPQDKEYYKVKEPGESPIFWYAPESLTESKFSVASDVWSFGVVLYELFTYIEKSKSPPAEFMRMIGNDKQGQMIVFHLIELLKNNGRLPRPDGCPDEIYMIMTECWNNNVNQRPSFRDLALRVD

Row | SMILES | inhibition at 10 µM (JAK2 kinase domain (JH1)) | IC50 [1] | Kd [2] | inhibition at 10 µM (Tyk2 kinase domain (DH1)) | IC50 [3]
1 | CNc1cc(Nc2cccn([C@@H]3CCC[C@@H](O)C3)c2=O)nc2c(C(=O)N[C@@H]3C[C@@H]3F)cnn12 [I-1029] | < 50% | > 2.5 µM | < 0.2 nM | < 50% | 
2 | CNc1cc(Nc2cccn(-c3ccccc3F)c2=O)nc2c(C(=O)N[C@H]3CC[C@H]3O)cnn12 [I-1035] | < 50% | > 2.5 µM | < 0.2 nM | < 50% | 
3 | CNc1cc(Nc2cccn(-c3ccccc3F)c2=O)nc2c(C(=O)N[C@H]3CC[C@@H]3O)cnn12 [I-1038] | < 50% | > 50 µM | < 0.2 nM | < 50% | 
4 | CNc1cc(Nc2cccn([C@H]3CCC[C@H](OC)C3)c2=O)nc2c(C(=O)N[C@@H]3CC3F)cnn12 (some centres unmarked) [I-1042] | < 50% | > 2.5 µM | < 0.2 nM | < 50% | 
5 | CNc1cc(-c2cn(C3CCOCC3)c3ncccc23)nc2c(C(=O)NC3CCC3O)cnn12 (centres unmarked) [I-1048, N-(2-hydroxycyclobutyl)-7-(methylamino)-5-(1-(tetrahydro-2H-pyran-4-yl)-1H-pyrrolo[2,3-b]pyridin-3-yl)pyrazolo[1,5-a]pyrimidine-3-carboxamide] | < 50% | > 2.5 µM | < 0.2 nM | < 50% | 
6 | CNc1cc(Nc2cccn([C@H]3CCN(CCF)C3)c2=O)nc2c(C(=O)N[C@H]3CC[C@@H]3OC)cnn12 [I-1050, 5-((1-((S)-1-(2-fluoroethyl)pyrrolidin-3-yl)-2-oxo-1,2-dihydropyridin-3-yl)amino)-N-((1 S,2S)-2-methoxycyclobutyl)-7-(methylamino)pyrazolo[1,5-a]pyrimidine-3-carboxamide] | < 50% | > 50 µM | < 0.2 nM | < 50% | 
7 | CNc1cc(Nc2cccc3ocnc23)nc2c(C(=O)NC3CC[C@@H]3OC)cnn12 (some centres unmarked) [I-1051, 5-(benzo[d]oxazol-4-ylamino)-N-(2-methoxycyclobutyl)-7-(methylamino) pyrazolo[1,5-a]pyrimidine-3-carboxamide] | < 50% | > 50 µM | < 0.2 nM | < 50% | 
8 | CNc1cc(Nc2cccn3ccnc23)nc2c(C(=O)N[C@H]3CC[C@@H]3OC)cnn12 [I-1052] | < 50% | > 50 µM | < 0.2 nM | < 50% | 
9 | CNc1cc(-c2cn(C(C)C)c3ncc(F)cc23)nc2c(C(=O)N[C@H]3CC[C@@H]3OC)cnn12 [I-1053, 5-(5-fluoro-1-isopropyl-1H-pyrrolo[2,3-b]pyridin-3-yl)-N-((1S,2S)-2-methoycyclobutyl)-7-(methylamino)pyrazolo[1,5-a]pyrimidine-3-carboxamide] | < 50% | > 12.5 µM | < 0.2 nM | < 50% | 
10 | CNc1cc(Nc2cccn([C@H]3CCCC[C@H]3O)c2=O)nc2c(C(=O)N[C@@H]3CC[C@H]3OC)cnn12 [I-1057] | < 50% | > 50 µM | < 0.2 nM | < 50% | 
11 | CNc1cc(Nc2cccn([C@H]3CCCN(CCF)C3)c2=O)nc2c(C(=O)N[C@@H]3CC[C@H]3OC)cnn12 [I-1059] | < 50% | > 50 µM | < 0.2 nM | < 50% | 
12 | CNc1cc(Nc2cccn([C@H]3CCC[C@H](O)C3)c2=O)nc2c(C(=O)N[C@H]3CC[C@@H]3OC)cnn12 [I-1063] | < 50% | > 50 µM | < 0.2 nM | < 50% | 
13 | CNc1cc(Nc2cccn(-c3cnn(C)c3F)c2=O)nc2c(C(=O)N[C@H]3CC[C@@H]3OC)cnn12 [I-1066] | < 50% | > 50 µM | < 0.2 nM | < 50% | 
14 | CNc1cc(Nc2cccn(-c3ncc(C)s3)c2=O)nc2c(C(=O)N[C@@H]3CC[C@H]3O)cnn12 [I-1070] | < 50% | > 12.5 µM | < 0.2 nM | < 50% | 
15 | CNc1cc(Nc2cccn(-c3ncc(C)s3)c2=O)nc2c(C(=O)N[C@@H]3CC[C@@H]3O)cnn12 [I-1073] | < 50% | > 50 µM | < 0.2 nM | < 50% | 
16 | CNc1cc(Nc2cccn([C@@H]3CCC[C@H](OC)C3)c2=O)nc2c(C(=O)N[C@@H]3CC[C@H]3OC)cnn12 [I-1082] | < 50% | > 50 µM | < 0.2 nM | < 50% | 
17 | CNc1cc(Nc2cccn([C@@H]3CC[C@H]3O)c2=O)nc2c(C(=O)N[C@H]3CC[C@@H]3OC)cnn12 [I-1093] | < 50% | > 50 µM | < 0.2 nM | < 50% | 
18 | CNc1cc(Nc2cccn([C@H]3CC[C@@H]3O)c2=O)nc2c(C(=O)N[C@H]3CC[C@@H]3OC)cnn12 [I-1094] | < 50% | > 50 µM | < 0.2 nM | < 50% | 
19 | CNc1cc(Nc2cccn([C@@H]3CCCN(CCF)C3)c2=O)nc2c(C(=O)N[C@@H]3CC[C@H]3OC)cnn12 [I-1095] | < 50% | > 50 µM | < 0.2 nM | < 50% | 
20 | CNc1cc(Nc2cccn([C@@H]3CCN(CCF)C3)c2=O)nc2c(C(=O)NC3CCC3OC)cnn12 (stereo partly drawn) [I-1096, 5-((1-((R)-1-(2-fluoroethyl)pyrrolidin-3-yl)-2-oxo-1,2-dihydropyridin-3-yl)amino)-N-(2-methoxycyclobutyl)-7-(methylamino)pyrazolo[1,5-a]pyrimidine-3-carboxamide] | < 50% | > 50 µM | < 0.2 nM | < 50% | 

Row | SMILES | inhibition at 10 µM (JAK2 kinase domain (JH1)) | IC50 [1] | Kd [2] | inhibition at 10 µM (Tyk2 kinase domain (DH1)) | IC50 [3]
21 | CNc1cc(Nc2cccn([C@H]3CCCC[C@H]3OC)c2=O)nc2c(C(=O)N[C@H]3CC[C@@H]3OC)cnn12 [I-1097] | < 50% | > 50 µM | < 0.2 nM | < 50% | 
22 | CNc1cc(Nc2cccn([C@H]3CCC[C@H](OC)C3)c2=O)nc2c(C(=O)N[C@H]3CC[C@@H]3OC)cnn12 [I-1098] | < 50% | > 50 µM | < 0.2 nM | < 50% | 
23 | CNc1cc(Nc2cccn([C@@H]3CCC[C@@H](OC)C3)c2=O)nc2c(C(=O)N[C@H]3CC[C@@H]3OC)cnn12 [I-1099] | < 50% | > 50 µM | < 0.2 nM | < 50% | 
24 | CNc1cc(Nc2cccn([C@H]3CCC[C@H]3O)c2=O)nc2c(C(=O)N[C@H]3CC[C@@H]3OC)cnn12 [I-1101] | < 50% | > 50 µM | < 0.2 nM | < 50% | 
25 | CNc1cc(Nc2cccn3cnnc23)nc2c(C(=O)N[C@H]3CC[C@@H]3OC)cnn12 [I-1102] | < 50% | > 2.5 µM | < 0.2 nM | < 50% | 
26 | CNc1cc(Nc2cccn([C@H]3CC[C@](C)(OC)CC3)c2=O)nc2c(C(=O)N[C@H]3CC[C@@H]3OC)cnn12 [I-1105] | < 50% | > 50 µM | < 0.2 nM | < 50% | 
27 | CNc1cc(Nc2cccn([C@H]3CC[C@](C)(OC)CC3)c2=O)nc2c(C(=O)N[C@@H]3CC[C@H]3O)cnn12 [I-1107] | < 50% | > 2.5 µM | < 0.2 nM | < 50% | 
28 | CNc1cc(Nc2cccn3ccnc23)nc2c(C(=O)N[C@@H]3CC[C@H]3OC)cnn12 [I-1133] |  |  | 1 to 10 nM |  | < 100 nM
29 | CNc1cc(-c2cn([C@H]3CCCOC3)c3ncccc23)nc2c(C(=O)N[C@H]3CC[C@@H]3OC)cnn12 [I-1283] |  |  | 1 to 10 nM |  | < 100 nM
30 | CNc1cc(Nc2cccn(-c3ccccn3)c2=O)nc2c(C(=O)N[C@@H]3C[C@H]3OC)cnn12 [I-1286] |  |  | < 0.2 nM |  | < 100 nM
31 | CNc1cc(Nc2cccn([C@H]3CCC[C@@H](O)C3)c2=O)nc2c(C(=O)N[C@H]3CC[C@@H]3OC)cnn12 [I-1296] |  |  | < 0.2 nM |  | < 100 nM
32 | CNc1cc(-c2cn(CCCO)c3ncccc23)nc2c(C(=O)N[C@@H]3CC[C@H]3OC)cnn12 [I-1299] |  |  | < 0.2 nM |  | < 100 nM
33 | CNc1cc(Nc2cccn([C@@H]3CC[C@H]3O)c2=O)nc2c(C(=O)N[C@@H]3CC[C@H]3OC)cnn12 [I-1309] |  |  | < 0.2 nM |  | < 100 nM
34 | CNc1cc(-c2cn(C3CCOCC3)c3ncc(F)cc23)nc2c(C(=O)N[C@H]3CC[C@@H]3O)cnn12 [I-1314] |  |  | < 0.2 nM |  | < 100 nM
35 | CNc1cc(Nc2cccn(-c3nn(C)cc3F)c2=O)nc2c(C(=O)N[C@@H]3C[C@@H]3F)cnn12 [I-1321] |  |  | < 0.2 nM |  | < 100 nM
36 | CNc1cc(Nc2cccn3cnnc23)nc2c(C(=O)N[C@H]3CC[C@@H]3OC)cnn12 [I-1343] |  |  |  |  | < 100 nM
37 | CNc1cc(Nc2cccn(-c3cnn(C)c3F)c2=O)nc2c(C(=O)N[C@H]3CC[C@@H]3OC)cnn12 [I-1369] |  |  |  |  | < 100 nM
38 | CNc1cc(Nc2cccn([C@H]3CCC[C@H]3O)c2=O)nc2c(C(=O)N[C@H]3CC[C@@H]3OC)cnn12 [I-1373] |  |  |  |  | < 100 nM
39 | CNc1cc(Nc2cccn([C@H]3CCCC[C@H]3OC)c2=O)nc2c(C(=O)N[C@H]3CC[C@@H]3OC)cnn12 [I-1377] |  |  |  |  | < 100 nM
